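48-hour exposure; five concentrations; linearly interpolated endpoints. GI50 marks 50% less growth. Definition used: TGI = concentration required for complete inhibition of growth.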

Test systems include KM12 colon; HL-60(TB) leukemia; EKVX NSCLC; 786-0 renal; NCI-H522 lung; PC-3 prostate; NCI-H226 lung; SN12C renal; M14 melanoma; OVCAR-5 ovarian.
Common to all, as to assay: NCI-60 cell line screen, 48 h

Regarding `CC1=Cc2ccc(C)cc2C(=O)C1=O`, the TGI in the assay on KM12 colon was found to be 34.5 µM; in the assay on HL-60(TB) leukemia, 4.13 µM; in the assay with EKVX NSCLC, 42.3 µM; with 786-0 renal, 3.81 µM; in the assay with NCI-H522 lung, 4.15 µM; in the assay on PC-3 prostate, 43 µM. For the same molecule, the TGI in the assay with NCI-H226 lung was more than 100 µM; in the assay with SN12C renal, 12.8 µM; in the assay on M14 melanoma, 10.5 µM; with OVCAR-5 ovarian, 37.2 µM.
For `CCN(c1cc(-c2ccc(CN3CCOCC3)cc2)cc(C(=O)NCc2c(C)cc(C)[nH]c2=O)c1C)C1CCOCC1`, the GI50 was 19.7 µM in the assay with KM12 colon; 17.5 µM in the assay on HL-60(TB) leukemia; 33.6 µM in the assay on EKVX NSCLC; 17.1 µM in the assay with 786-0 renal; 23.6 µM in the assay with NCI-H522 lung; 32 µM with PC-3 prostate. Also, the GI50 in the assay with NCI-H226 lung was 16.5 µM; in the assay with SN12C renal, 26.9 µM; in the assay on M14 melanoma it was 19.9 µM; in the assay with OVCAR-5 ovarian, 37.7 µM. Further, the TGI in the assay on KM12 colon was 52 µM; with HL-60(TB) leukemia, 56.2 µM; with EKVX NSCLC it was more than 100 µM; with 786-0 renal, 40.7 µM; in the assay on NCI-H522 lung it was more than 58.5 µM; in the assay on PC-3 prostate, more than 100 µM. Also, the TGI with NCI-H226 lung is 40.8 µM; in the assay on SN12C renal it was more than 64.5 µM; in the assay on M14 melanoma it was 42.3 µM; with OVCAR-5 ovarian, more than 82.5 µM.
On to `O=C1/C(=C/c2ccccc2)CN(C(=O)CCN2CCCC2)C/C1=C\c1ccccc1`, for which the TGI in the assay with KM12 colon was 1.82 µM; in the assay with HL-60(TB) leukemia, 1.18 µM; with EKVX NSCLC, 7.15 µM; in the assay with 786-0 renal, 1.94 µM; in the assay on NCI-H522 lung it was 2.8 µM; in the assay with PC-3 prostate, 2.42 µM. Moreover, the TGI was 13.9 µM with NCI-H226 lung, 3.16 µM in the assay on SN12C renal, 3.62 µM in the assay on M14 melanoma and 7.7 µM in the assay on OVCAR-5 ovarian.
Turning to `O=C(NCCc1ccccn1)OCc1nc2nc(Cl)nc(N3CCOCC3)c2[nH]1`, the GI50 in the assay on KM12 colon is 2.63 µM; with HL-60(TB) leukemia it was 1.83 µM; in the assay with EKVX NSCLC, 2.93 µM; in the assay with 786-0 renal it was 1.75 µM; in the assay with NCI-H522 lung, 1.93 µM; in the assay on PC-3 prostate, 1.7 µM. The GI50 with NCI-H226 lung was 1.61 µM; in the assay on SN12C renal, 1.5 µM; in the assay on OVCAR-5 ovarian, 1.67 µM. The TGI with KM12 colon was 10.8 µM; in the assay with HL-60(TB) leukemia, 4.96 µM; in the assay on EKVX NSCLC, 11.3 µM; with 786-0 renal it was 3.52 µM; in the assay on NCI-H522 lung it was 4.96 µM; in the assay with PC-3 prostate it was 3.73 µM. Besides, the TGI was determined as 3.29 µM in the assay with NCI-H226 lung, 3.19 µM in the assay on SN12C renal and 3.38 µM in the assay with OVCAR-5 ovarian.
For the molecule `COc1ccc(C(O)c2cc3c(N)c(C(=O)Nc4cccc(Cl)c4)sc3nc2C)cc1` (stereo not drawn), the GI50 with KM12 colon is 1.1 µM; in the assay on HL-60(TB) leukemia it was 0.868 µM; in the assay on EKVX NSCLC, 1.88 µM; in the assay with 786-0 renal it was 1.67 µM; with NCI-H522 lung, 1.05 µM; in the assay with PC-3 prostate, 1.56 µM. The GI50 was 1.63 µM in the assay on NCI-H226 lung, 2.02 µM in the assay on SN12C renal, 0.731 µM with M14 melanoma and 1.98 µM in the assay on OVCAR-5 ovarian. In addition, the TGI was more than 33.4 µM with KM12 colon; 2.78 µM with HL-60(TB) leukemia; more than 86.9 µM in the assay with EKVX NSCLC; more than 39.6 µM in the assay with 786-0 renal; more than 41.9 µM in the assay on NCI-H522 lung; more than 40.4 µM in the assay on PC-3 prostate. Besides, the TGI in the assay on NCI-H226 lung was more than 43 µM; in the assay with SN12C renal, more than 72.7 µM; with M14 melanoma, more than 36.5 µM; in the assay on OVCAR-5 ovarian it was more than 48.7 µM.
With `C1CC2CN(CCCN3CCOCC3)C(C1)O2` (stereo not drawn), the TGI in the assay on KM12 colon, in the assay with HL-60(TB) leukemia, with EKVX NSCLC, in the assay with 786-0 renal, in the assay with NCI-H522 lung and in the assay on PC-3 prostate was more than 100 µM in each case. Further, the TGI in the assay with NCI-H226 lung, in the assay on SN12C renal, in the assay on M14 melanoma and in the assay on OVCAR-5 ovarian was more than 100 µM each time.
With `Cc1ccc(S(=O)(=O)c2nc(-c3ccccc3)oc2S(C)=O)cc1` (stereo not drawn), the GI50 in the assay with KM12 colon was 1.95 µM; in the assay with HL-60(TB) leukemia, 1.52 µM; with EKVX NSCLC it was 1.72 µM; in the assay with 786-0 renal, 1.44 µM; with NCI-H522 lung, 1.12 µM; in the assay with PC-3 prostate, 2.03 µM. Also, the GI50 in the assay on NCI-H226 lung was 1.96 µM; with SN12C renal it was 1.68 µM; with M14 melanoma it was 1.59 µM; in the assay with OVCAR-5 ovarian it was 1.85 µM. Also, the TGI came to 3.86 µM in the assay with KM12 colon; 4.71 µM in the assay on HL-60(TB) leukemia; 3.4 µM in the assay on EKVX NSCLC; 2.82 µM with 786-0 renal; 2.59 µM in the assay on NCI-H522 lung; 4.45 µM in the assay on PC-3 prostate. Besides, the TGI in the assay on NCI-H226 lung is 4.73 µM; in the assay on SN12C renal, 3.43 µM; with M14 melanoma, 3.25 µM; with OVCAR-5 ovarian, 3.47 µM.
Take `C1CC[N-]CC1.CC(=N\O)/C(C)=N/O.CC(=N\O)/C(C)=N/O.OC1[CH-]CCCC1.[Co+2]`: the GI50 is more than 100 µM with KM12 colon; 21.7 µM in the assay on HL-60(TB) leukemia; 31.1 µM in the assay on EKVX NSCLC; 61.8 µM with 786-0 renal; 15.7 µM in the assay on NCI-H522 lung; 36.6 µM in the assay on PC-3 prostate. Besides, the GI50 in the assay on NCI-H226 lung was more than 100 µM; in the assay on SN12C renal, 53.7 µM; in the assay with M14 melanoma it was 52.8 µM; in the assay on OVCAR-5 ovarian, more than 100 µM. The TGI was more than 100 µM in the assay with KM12 colon; 72.5 µM with HL-60(TB) leukemia; more than 100 µM with EKVX NSCLC; more than 100 µM with 786-0 renal; 31 µM in the assay with NCI-H522 lung; more than 100 µM in the assay with PC-3 prostate. Besides, the TGI with NCI-H226 lung, in the assay with SN12C renal, in the assay on M14 melanoma and with OVCAR-5 ovarian was more than 100 µM each time.
Regarding `CCOc1c(N=Nc2ccccc2Cl)c(-c2ccccc2)nn1C(=S)S`, the TGI with KM12 colon was more than 100 µM; in the assay on HL-60(TB) leukemia, more than 100 µM; in the assay with EKVX NSCLC, more than 100 µM; in the assay on 786-0 renal it was more than 100 µM; with NCI-H522 lung it was 89.9 µM; in the assay on PC-3 prostate, more than 100 µM. For the same molecule, the TGI was 93.8 µM with NCI-H226 lung, 34.8 µM with SN12C renal, more than 100 µM in the assay on M14 melanoma and more than 100 µM with OVCAR-5 ovarian.

The values above are taken from PubChem BioAssay (NCI).
